Measurements taken from patent US20250376477A1, “ANALGESIC DELTA OPIOID RECEPTOR BITOPIC LIGANDS” (UNIVERSITY OF SOUTHERN CALIFORNIA, priority 2022, published 2025).

Experiments:
DOR [1] = molecular target: T1, DOR (Homo sapiens, UniProt P41143); format: cell-based; conditions: for potency at DOR: BRET based Gi-1 assay / G-protein pathways; for selectivity for DOR over other opioid subtypes: DOR vs KOR and MOR, BRET based Gi-1 assays; for G-protein bias: G-protein vs arrestin at DOR
KOR = KOR (Homo sapiens, UniProt P41145); assay: BRET based Gi-1 assay, activation of KOR; format: cell-based
Sequence of KOR (P41145 whole entry): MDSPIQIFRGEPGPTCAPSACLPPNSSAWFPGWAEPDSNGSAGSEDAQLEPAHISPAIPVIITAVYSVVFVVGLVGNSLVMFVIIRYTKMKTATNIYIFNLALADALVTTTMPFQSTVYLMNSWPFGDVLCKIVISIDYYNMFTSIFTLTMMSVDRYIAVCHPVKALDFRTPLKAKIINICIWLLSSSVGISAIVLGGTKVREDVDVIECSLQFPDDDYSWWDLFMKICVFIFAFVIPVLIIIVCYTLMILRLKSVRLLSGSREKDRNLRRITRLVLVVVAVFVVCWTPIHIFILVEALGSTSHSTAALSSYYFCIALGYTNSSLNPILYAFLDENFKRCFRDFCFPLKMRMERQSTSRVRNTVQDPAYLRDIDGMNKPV

DOR [2] = molecular target: T1, DOR; format: cell-based; conditions: compared to known DOR orthosteric site binders
[3] = In vivo analgesia / oral activity in chronic pain models; conditions: for Orally active: oral
C57BL/6J mice [4] = assay: Seizure assay; conditions: for seizure occurrence: compared with known DOR agonists; for seizures in seizure assay: C57BL/6J mice, sc injection, C6 quino at analgesic doses
C57BL/6J mice [5] = assay: Respiratory depression; conditions: sc injection, morphine 10 mg/kg
DOR [6] = molecular target: T1, DOR; format: cell-based; conditions: compared to DPDPE and C5 quino
DOR [7] = molecular target: T1, DOR; format: cell-based; conditions: compared to DPDPE and C5 quino; remark: listed apart in the source
C57BL/6J mice [8] = assay: Rotarod assay (motor coordination); conditions: sc injection
sciatic nerve ligation = assay: Mechanical allodynia induced by sciatic nerve ligation; format: in vivo
Method: Mechanical allodynia induced by sciatic nerve ligation was reduced between 20 and 140 minutes after treatment with 30 mg/kg C6-quino sc. Supraspinal (icv) antinociception mediated by C6 quino is DOR dependent, yet C6-quino produced no seizures (B, top).

Microsomal stability = conditions: microsomes
DOR [9] = molecular target: T2, DOR (Mus musculus, UniProt P32300); format: in vivo
T2 construct: from tissue; host or cells: living animal, central nervous system (icv dosing)
T2 sequence (P32300 whole entry): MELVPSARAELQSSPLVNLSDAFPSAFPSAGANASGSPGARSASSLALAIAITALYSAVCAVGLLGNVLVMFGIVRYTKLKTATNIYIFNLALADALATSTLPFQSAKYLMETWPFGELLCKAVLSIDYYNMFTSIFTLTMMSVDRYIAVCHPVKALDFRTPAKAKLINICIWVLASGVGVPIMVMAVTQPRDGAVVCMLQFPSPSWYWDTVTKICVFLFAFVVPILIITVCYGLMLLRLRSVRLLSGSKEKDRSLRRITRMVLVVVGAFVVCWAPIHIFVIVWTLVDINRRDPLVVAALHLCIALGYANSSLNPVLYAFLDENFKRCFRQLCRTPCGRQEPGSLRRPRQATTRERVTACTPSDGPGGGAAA

PK assays = format: in vivo
C57BL/6J mice [10] = assay: Locomotor effects; conditions: sc injection, C6-quino 30 mg/kg sc

T1 sequence (P41143 whole entry): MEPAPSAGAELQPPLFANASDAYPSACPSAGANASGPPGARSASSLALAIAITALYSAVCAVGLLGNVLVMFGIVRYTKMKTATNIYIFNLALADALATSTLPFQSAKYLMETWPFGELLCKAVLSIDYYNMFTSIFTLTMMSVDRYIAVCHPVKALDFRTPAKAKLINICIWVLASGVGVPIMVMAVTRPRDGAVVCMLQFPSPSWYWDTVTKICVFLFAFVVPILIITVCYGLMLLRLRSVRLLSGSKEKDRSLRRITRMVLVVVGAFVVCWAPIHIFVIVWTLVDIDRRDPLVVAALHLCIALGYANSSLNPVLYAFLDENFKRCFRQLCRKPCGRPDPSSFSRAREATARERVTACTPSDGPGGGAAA

Row | SMILES | potency at DOR (DOR [1]) | activity at KOR (KOR) | functional profile (potency and efficacy) across DOR G protein subtypes and βarrestin-1 and 2 (DOR [2]) | selectivity for DOR over other opioid subtypes (DOR [1]) | efficacy in chronic pain models [3] | Orally active [3] | G-protein bias (DOR [1]) | seizure occurrence (C57BL/6J mice [4]) | respiratory depression (C57BL/6J mice [5]) | locomotor activity (C57BL/6J mice [10]) | seizures in seizure assay (C57BL/6J mice [4]) | also measured
1 | N=C(N)NCCCCCN1CC[C@]23c4c5ccc(O)c4O[C@H]2c2[nH]c4ccccc4c2C[C@@]3(O)[C@H]1C5 [C5-Indole] | high potency | retained activity |  |  |  |  |  |  |  |  |  | 
2 | N=C(N)NCCCCCN1CCC23c4c5ccc(O)c4O[C@H]2c2nc4ccccc4cc2C[C@@]3(O)C1C5 (stereo partly shown) [C5-Quino] | high potency |  | unique functional profiling | selectivity for DOR over other opioid subtypes |  |  |  |  |  |  |  | 
3 | N=C(N)NCCCCCCN1CCC23c4c5ccc(O)c4O[C@H]2c2[nH]c4ccccc4c2C[C@@]3(O)C1C5 (stereo partly shown) [C6-Indole] | high potency | retained activity |  |  | effective in chronic pain models | orally active | G-protein biased | do not cause seizures |  |  |  | 
4 | N=C(N)NCCCCCCN1CCC23c4c5ccc(O)c4O[C@H]2c2nc4ccccc4cc2C[C@@]3(O)C1C5 (stereo partly shown) [C6-Quino] | high potency |  | unique functional profiling | selectivity for DOR over other opioid subtypes | effective in chronic pain models | orally active | G-protein biased | do not cause seizures | did not cause significant respiratory depression | did not significantly differ from the vehicle at any time point | no seizures | intrinsic efficacy at DOR, βarrestin-2 (DOR [6]): lower intrinsic efficacy; intrinsic efficacy at DOR, βarrestin-1 (DOR [7]): lower intrinsic efficacy; sedation in rotarod assay (C57BL/6J mice [8]): no propensity to cause sedation; Orally active ([3]; listed as 6C-Quino): YES; anti-allodynic effect in presence of NTB (sciatic nerve ligation; antagonist NTB): antagonized by NTB; anti-allodynic activity (sciatic nerve ligation; sciatic nerve ligation, mechanical allodynia): dose- and time-dependent anti-allodynic activity similar to gabapentin; half-life (Microsomal stability): > 2 h; supraspinal (icv) antinociception, receptor dependence (DOR [9]): DOR dependent; brain penetration (PK assays; PK assays): good; systemic availability (PK assays; PK assays): good; half-life (PK assays; in vivo): 2 h; intrinsic efficacy at DOR, G-protein (DOR [1]; compared to DPDPE and C5 quino): lower intrinsic efficacy; seizures (C57BL/6J mice [4]; FIG. 4B top): no seizures
5 | CN1CC[C@]23c4c5ccc(O)c4O[C@H]2[C@@H](O)C=C[C@H]3[C@H]1C5 [Morphine, reference compound] |  |  |  |  |  |  |  |  | caused respiratory depression | hyperlocomotion |  | 
6 | C=CCN1C[C@H](C)N([C@H](c2ccc(C(=O)N(CC)CC)cc2)c2cccc(OC)c2)C[C@H]1C [SNC80, reference compound] |  |  |  |  |  |  |  |  |  |  | caused seizures | 
